Legend:
[1] = Inhibition of recombinant his tagged IMP1 (unknown origin) expressed in Escherichia coli (DE3) cells using FC5 as substrate by microplate reader assay
[2] = Inhibition of recombinant NDM1 (unknown origin) expressed in Escherichia coli (DE3) cells using FC5 as substrate by microplate reader assay
[3] = Inhibition of recombinant VIM-1 (unknown origin) expressed in Escherichia coli (DE3) cells using FC5 as substrate by microplate reader assay
[4] = Inhibition of recombinant his tagged VIM-2 (unknown origin) expressed in Escherichia coli (DE3) cells using FC5 as substrate by microplate reader assay
[5] = Inhibition of recombinant VIM-5 (unknown origin) expressed in Escherichia coli (DE3) cells using FC5 as substrate by microplate reader assay

| Structure (SMILES) | IC50 [1] | IC50 [2] | IC50 [3] | IC50 [4] | IC50 [5] |
| --- | --- | --- | --- | --- | --- |
| NCCN[C@H]1CC[C@H](CC(=O)N[C@H]2Cc3cccc(C(=O)O)c3OB2O)CC1 | 13.2 µM | 0.18 µM | 0.041 µM | 0.004 µM | – |
| O=C(O)c1cccc(-n2cc(-c3ccccc3)nn2)c1 | > 100 µM | > 100 µM | > 100 µM | > 100 µM | > 100 µM |
| Nc1c(C(=O)O)cccc1-n1cc(-c2ccccc2)nn1 | > 100 µM | > 100 µM | > 100 µM | > 100 µM | > 100 µM |
| NCc1cn(-c2ccccc2CP(=O)(O)O)nn1 | > 100 µM | > 100 µM | > 100 µM | > 100 µM | > 100 µM |
| O=C(O)c1ccccc1-c1cn(-c2cccc(C(=O)O)c2C(=O)O)nn1 | 13.9 µM | > 100 µM | 19.5 µM | > 100 µM | > 100 µM |
| OB(O)c1cccc(-c2cn(Cc3ccccc3)nn2)c1 | > 100 µM | 36.3 µM | > 100 µM | 64.2 µM | 14.6 µM |
| Nc1ccccc1-c1cn(-c2cccc(C(=O)O)c2C(=O)O)nn1 | 6.43 µM | > 100 µM | > 100 µM | 37.6 µM | 61.7 µM |
| Nc1cccc(-c2cn(-c3cccc(C(=O)O)c3C(=O)O)nn2)c1 | 1.17 µM | > 100 µM | 14.5 µM | 11.7 µM | > 100 µM |
| CCCCc1cn(-c2cccc(C(=O)O)c2C(=O)O)nn1 | 8.94 µM | > 100 µM | > 100 µM | 77.2 µM | > 100 µM |
| O=P(O)(O)Cc1ccccc1-n1cc(-c2cccc(Cl)c2)nn1 | 80.4 µM | > 100 µM | 6.29 µM | 0.88 µM | 1.49 µM |
| OB(O)c1cccc(-c2cn(-c3ccccc3)nn2)c1 | > 100 µM | > 100 µM | > 100 µM | > 100 µM | > 100 µM |
| NCCc1ccc(-c2cn(-c3cccc(C(=O)O)c3C(=O)O)nn2)cc1 | 1.8 µM | > 100 µM | > 100 µM | 67.5 µM | > 100 µM |
| O=C(O)c1cccc(-n2cc(-c3ccccc3)nn2)c1[N+](=O)[O-] | > 100 µM | > 100 µM | > 100 µM | > 100 µM | > 100 µM |
| O=P(O)(O)Cc1ccc(-n2cc(-c3ccccc3)nn2)cc1 | > 100 µM | > 100 µM | 16 µM | 1.63 µM | 1.5 µM |
| O=P(O)(O)Cc1ccccc1-n1cc(-c2ccccc2)nn1 | > 100 µM | > 100 µM | 10 µM | 1.48 µM | 1.63 µM |
| CC(C)(C)OC(=O)NCCn1cc(-c2cccc(B(O)O)c2)nn1 | > 100 µM | > 100 µM | > 100 µM | 52.4 µM | > 100 µM |
| O=C(O)c1cccc(-n2cc(-c3ccccc3)nn2)c1C(=O)O | 8.23 µM | > 100 µM | > 100 µM | 13.3 µM | > 100 µM |
| Nc1ccc(-c2cn(-c3cccc(C(=O)O)c3C(=O)O)nn2)cc1 | 5.07 µM | > 100 µM | > 100 µM | 10.3 µM | > 100 µM |
| O=C(CCn1cc(-c2cccc(B(O)O)c2)nn1)Nc1ccccc1 | > 100 µM | > 100 µM | > 100 µM | 34.3 µM | 6.36 µM |
| NCc1cn(-c2cccc(C(=O)O)c2C(=O)O)nn1 | 81.5 µM | > 100 µM | > 100 µM | > 100 µM | > 100 µM |

| Structure (SMILES) | IC50 [1] | IC50 [2] | IC50 [3] | IC50 [4] | IC50 [5] |
| --- | --- | --- | --- | --- | --- |
| OB(O)c1cccc(-c2cn(-c3cccc(Cl)c3)nn2)c1 | > 100 µM | 29.1 µM | > 100 µM | 24.2 µM | 14.7 µM |
| O=P(O)(O)Cc1cccc(-n2cc(-c3ccccc3)nn2)c1 | 5.98 µM | 27.8 µM | 3.65 µM | 0.65 µM | 0.05 µM |
| O=C(CCn1cc(-c2cccc(B(O)O)c2)nn1)Nc1cccc(Cl)c1 | > 100 µM | 68.2 µM | > 100 µM | 30.5 µM | 48.7 µM |
| NCc1cccc(-c2cn(-c3ccccc3CP(=O)(O)O)nn2)c1 | > 100 µM | > 100 µM | 21.7 µM | 4.92 µM | 1.4 µM |
| CCCCc1cn(-c2ccccc2CP(=O)(O)O)nn1 | > 100 µM | > 100 µM | 13.8 µM | 5.34 µM | 32.2 µM |
| Nc1cccc(-c2cn(-c3ccccc3CP(=O)(O)O)nn2)c1 | > 100 µM | 94.9 µM | 27.2 µM | 1.11 µM | 0.38 µM |
| O=C(O)c1cccc(-n2cc(CNc3ccccc3)nn2)c1C(=O)O | 3.53 µM | > 100 µM | 37.8 µM | 53.2 µM | 72 µM |
| O=C(O)c1cccc(-n2cc(-c3ccccc3)nn2)c1O | > 100 µM | > 100 µM | 61.9 µM | > 100 µM | 59.9 µM |
| Nc1cccc(-n2cc(-c3cccc(B(O)O)c3)nn2)c1 | > 100 µM | 50.4 µM | > 100 µM | 18.4 µM | > 100 µM |
| O=C(O)c1cccc(-n2cc(CCO)nn2)c1C(=O)O | 40.7 µM | > 100 µM | > 100 µM | > 100 µM | > 100 µM |
| O=C(O)c1ccc(-n2cc(-c3ccccc3)nn2)cc1C(=O)O | 46.2 µM | > 100 µM | > 100 µM | 94.6 µM | 60.4 µM |
| O=C(O)c1cccc(-n2cc(Cc3ccccc3)nn2)c1C(=O)O | 9.02 µM | > 100 µM | 71 µM | > 100 µM | 87.1 µM |
| OCCn1cc(-c2cccc(B(O)O)c2)nn1 | > 100 µM | > 100 µM | > 100 µM | > 100 µM | > 100 µM |
| NCc1cccc(-c2cn(-c3cccc(C(=O)O)c3C(=O)O)nn2)c1 | 19.7 µM | > 100 µM | > 100 µM | > 100 µM | > 100 µM |
| Cc1cccc(-c2cn(-c3ccccc3CP(=O)(O)O)nn2)c1 | > 100 µM | > 100 µM | 6.57 µM | 3.37 µM | 1.89 µM |
| Cc1cccc(-c2cn(-c3cccc(C(=O)O)c3C(=O)O)nn2)c1 | 1.83 µM | > 100 µM | > 100 µM | 19.8 µM | 28.8 µM |
| O=C(O)c1cccc(-n2cc(-c3cccc(Cl)c3)nn2)c1C(=O)O | 2.84 µM | > 100 µM | 15 µM | 20.5 µM | 32.2 µM |
| O=P(O)(O)Cc1cccc(-n2cc(-c3ccccc3F)nn2)c1 | 8.49 µM | 25.9 µM | 9.79 µM | 0.65 µM | 0.1 µM |
| O=P(O)(O)Cc1ccccc1-n1cc(CNc2ccccc2)nn1 | > 100 µM | 82.8 µM | 46 µM | 4.16 µM | 14.9 µM |
| O=C(O)c1cn(-c2cccc(C(=O)O)c2C(=O)O)nn1 | 29.2 µM | > 100 µM | > 100 µM | 55.3 µM | 93.6 µM |

From ChEMBL document CHEMBL5620345, “Metal binding pharmacophore click-derived discovery of new broad-spectrum metallo-β-lactamase inhibitors” (Eur J Med Chem, 2023)
